{
  "source": "patent US9528090B2",
  "about": "“Differentiation of human embryonic stem cells” (Janssen Biotech, Inc., priority 2010, dated 2016)",
  "key": {"[1]": {"system": "human embryonic stem cells line H1", "assay": "Definitive endoderm differentiation of H1 cells, cluster seeding (activin A/WNT-3a, RPMI): FACS for CXCR4 and CD9", "type": "cell-based", "conditions": "for % CXCR4 + CD9− / % CXCR4 − CD9+ / % CXCR4 − CD9−: cluster seeding, day 4", "procedure": "Cells of the human embryonic stem cells line H1 (p40-p52) were cultured on […]® (1:30 dilution) (BD Biosciences; Cat #356231)-coated dishes in MEF-CM (mouse embryonic fibroblast conditioned media) supplemented with 16 ng/ml of FGF2 (Catalog#100-18B, PeproTech, NJ), and differentiated into cells expressing markers characteristic of the definitive endoderm lineage as follows: • a. RPMI medium supplemented with 2% fatty acid-free BSA (Catalog#68700, Proliant, IA), and 100 ng/ml activin A (R&D Systems, MN) plus 20 ng/ml WNT-3a (Catalog#1324-WN-002, R&D Systems, MN) for one day, then • b. RPMI medium supplemented with 2% BSA and 100 ng/ml activin A for an additional three days.\n[…] ITS-X is a serum replacement supplemented comprised of 1 mg/ml of Insulin, 0.55 mg/ml of Transferrin, 0.00067 mg/ml of Sodium Selenite, […] As a control, 0.2% FBS (Catalogue#SH30070.03, Hyclone, UT) was used for day 1 of differentiation, 0.5% FBS at day 2 and 2% FBS was used for days 3-4. The FBS treated cultures were not supplemented with ITS-X.\nAt day 4, samples were collected for FACS and gene expression analysis using real-time PCR.\nThe cell surface receptor CXCR4 has been previously shown to be a marker of definitive endoderm. CD9 is a marker for undifferentiated ES cells. Consequently, an increase in the expression of CXCR4, and a decrease in the expression of CD9 in a population of cells is indicative for the formation of definitive endoderm."}, "[2]": {"system": "human embryonic stem cells line H1", "assay": "Definitive endoderm differentiation of H1 cells, cluster seeding: real-time PCR gene expression", "type": "cell-based", "conditions": "1-100 ng/ml of insulin, BSA medium, day 4, real-time PCR", "procedure": "Cells of the human embryonic stem cells line H1 (p40-p52) were cultured on MATRIGEL® (1:30 dilution) (BD Biosciences; Cat #356231)-coated dishes in MEF-CM (mouse embryonic fibroblast conditioned media) supplemented with 16 ng/ml of FGF2 (Catalog#100-18B, PeproTech, NJ), and differentiated into cells expressing markers characteristic of the definitive endoderm lineage as follows: • a. RPMI medium supplemented with 2% fatty acid-free BSA (Catalog#68700, Proliant, IA), and 100 ng/ml activin A (R&D Systems, MN) plus 20 ng/ml WNT-3a (Catalog#1324-WN-002, R&D Systems, MN) for one day, then • b. RPMI medium supplemented with 2% BSA and 100 ng/ml activin A for an additional three days.\nIn some of the cultures, the cells were treated with the following dilution of ITS-X (Catalogue#51500-056, Invitrogen, CA): 0, 1:10^6, 1:5×10^5, 1:10^5, 1:10^4. ITS-X is a serum replacement supplemented comprised of 1 mg/ml of Insulin, 0.55 mg/ml of Transferrin, 0.00067 mg/ml of Sodium Selenite, and 0.2 mg/ml of Ethanolamine The range of dilutions of ITS-X correspond to 0, 1 ng/ml, 2 ng/ml, 10 ng/ml, and 100 ng/ml of insulin. As a control, 0.2% FBS (Catalogue#SH30070.03, Hyclone, UT) was used for day 1 of differentiation, 0.5% FBS at day 2 and 2% FBS was used for days 3-4. The FBS treated cultures were not supplemented with ITS-X. […]"}, "[3]": {"system": "human embryonic stem cells line H1", "assay": "Definitive endoderm differentiation of H1 cells, single cell seeding (activin A/WNT-3a, MCDB-131): FACS for CXCR4 and CD9", "type": "cell-based", "conditions": "for % CXCR4 + CD9− / % CXCR4 − CD9+ / % CXCR4 − CD9−: single cell seeding, day 4", "procedure": "(§1) Cells of the human embryonic stem cells line H1 (p40-p52) were seeded as single cells at a density of 100000 cells/cm^2 on MATRIGEL® (1:30 dilution) (BD Biosciences; Cat #356231)-coated dishes in MEF-CM (mouse embryonic fibroblast conditioned media) supplemented with 16 ng/ml of FGF2 (Catalog#100-18B, PeproTech, NJ) and 10 μM of Y27632 (Rock inhibitor, Catalogue#Y0503, Sigma, Mo.). 72 hrs post seeding, cultures were differentiated into definitive endoderm (DE) as follows: • a. MCDB-131 (Catalogue#10372-019, Invitrogen, CA) medium supplemented with 2% fatty acid-free BSA (Catalog#68700, Proliant, IA), 0.0025 g/ml sodium bicarbonate (Catalogue #S3187, Sigma, Mo.), 1× GlutaMax™ (Catalogue #35050-079, Invitrogen, Ca) and 100 ng/ml activin A (R&D Systems, MN) plus 20 ng/ml WNT-3a (Catalog#1324-WN-002, R&D Systems, MN) for one day, then • b. MCDB-131 medium supplemented with 2% BSA, sodium bicarbonate, Glutamax, and 100 ng/ml activin A for an additional three days.\n(§2) In some of the cultures, the cells were treated with the following concentrations of insulin (Catalogue#19278, Sigma, Mo.): 0, 1, 10, 100, 1000, or 10000 ng/ml. At day 4, samples were collected for FACS and gene expression analysis using real-time PCR.\nFIG. 5 depicts the CXCR4 and CD9 expression profile of the various treatments as measured by FACS analysis."}, "[4]": {"system": "human embryonic stem cells line H1", "assay": "Definitive endoderm differentiation of H1 cells, single cell seeding (activin A/WNT-3a): real-time PCR gene expression", "type": "cell-based", "conditions": "BSA medium", "procedure": "as §1, §2"}, "[5]": {"system": "ES cells", "conditions": "200 ng/ml of insulin added to 2% FBS, MEF-CM, activin A; cited from earlier work"}, "[6]": {"conditions": "BSA + 100 ng/ml insulin (ITS-X)"}, "[7]": {"conditions": "super physiological insulin (1-10 μg/ml), BSA medium"}},
  "data": [
    {"substance": "insulin", "values": [
      {"measurement": "% CXCR4 + CD9−", "setting": "[1]; BSA + 1 ng/ml insulin (ITS-X)", "value": 70, "unit": "%"},
      {"measurement": "% CXCR4 − CD9+", "setting": "[1]; BSA + 1 ng/ml insulin (ITS-X)", "value": 13, "unit": "%"},
      {"measurement": "% CXCR4 − CD9−", "setting": "[1]; BSA + 1 ng/ml insulin (ITS-X)", "value": 10, "unit": "%"},
      {"measurement": "% CXCR4 + CD9−", "setting": "[1]; BSA + 5 ng/ml insulin (ITS-X)", "value": 67, "unit": "%"},
      {"measurement": "% CXCR4 − CD9+", "setting": "[1]; BSA + 5 ng/ml insulin (ITS-X)", "value": 15, "unit": "%"},
      {"measurement": "% CXCR4 − CD9−", "setting": "[1]; BSA + 5 ng/ml insulin (ITS-X)", "value": 12, "unit": "%"},
      {"measurement": "% CXCR4 + CD9−", "setting": "[1]; BSA + 10 ng/ml insulin (ITS-X)", "value": 69, "unit": "%"},
      {"measurement": "% CXCR4 − CD9+", "setting": "[1]; BSA + 10 ng/ml insulin (ITS-X)", "value": 13, "unit": "%"},
      {"measurement": "% CXCR4 − CD9−", "setting": "[1]; BSA + 10 ng/ml insulin (ITS-X)", "value": 13, "unit": "%"},
      {"measurement": "% CXCR4 + CD9−", "setting": "[1]; [6]", "value": 73, "unit": "%"},
      {"measurement": "% CXCR4 − CD9+", "setting": "[1]; [6]", "value": 12, "unit": "%"},
      {"measurement": "% CXCR4 − CD9−", "setting": "[1]; [6]", "value": 9, "unit": "%"},
      {"measurement": "expression of CXCR4, or CD9", "setting": "[1]; BSA medium, any concentration of insulin tested, FACS", "value": "no significant change"},
      {"measurement": "expression of markers of definitive endoderm (FOXA2, SOX17, CXCR4), mesenchyme (T), extraembryonic (SOX7, AFP)", "setting": "[2]", "value": "did not significantly affect"},
      {"measurement": "% CXCR4 + CD9−", "setting": "[3]; BSA + 1 ng/ml insulin", "value": 96, "unit": "%"},
      {"measurement": "% CXCR4 − CD9+", "setting": "[3]; BSA + 1 ng/ml insulin", "value": 1.5, "unit": "%"},
      {"measurement": "% CXCR4 − CD9−", "setting": "[3]; BSA + 1 ng/ml insulin", "value": 0.7, "unit": "%"},
      {"measurement": "% CXCR4 + CD9−", "setting": "[3]; BSA + 10 ng/ml insulin", "value": 95, "unit": "%"},
      {"measurement": "% CXCR4 − CD9+", "setting": "[3]; BSA + 10 ng/ml insulin", "value": 1.4, "unit": "%"},
      {"measurement": "% CXCR4 − CD9−", "setting": "[3]; BSA + 10 ng/ml insulin", "value": 0.7, "unit": "%"},
      {"measurement": "% CXCR4 + CD9−", "setting": "[3]; BSA + 100 ng/ml insulin", "value": 90, "unit": "%"},
      {"measurement": "% CXCR4 − CD9+", "setting": "[3]; BSA + 100 ng/ml insulin", "value": 4.1, "unit": "%"},
      {"measurement": "% CXCR4 − CD9−", "setting": "[3]; BSA + 100 ng/ml insulin", "value": 2, "unit": "%"},
      {"measurement": "% CXCR4 + CD9−", "setting": "[3]; BSA + 1 μg/ml insulin", "value": 90, "unit": "%"},
      {"measurement": "% CXCR4 − CD9+", "setting": "[3]; BSA + 1 μg/ml insulin", "value": 3.6, "unit": "%"},
      {"measurement": "% CXCR4 − CD9−", "setting": "[3]; BSA + 1 μg/ml insulin", "value": 2.2, "unit": "%"},
      {"measurement": "% CXCR4 + CD9−", "setting": "[3]; BSA + 10 μg/ml insulin", "value": 84, "unit": "%"},
      {"measurement": "% CXCR4 − CD9+", "setting": "[3]; BSA + 10 μg/ml insulin", "value": 6.6, "unit": "%"},
      {"measurement": "% CXCR4 − CD9−", "setting": "[3]; BSA + 10 μg/ml insulin", "value": 4.7, "unit": "%"},
      {"measurement": "CXCR4−CD9+ fraction", "setting": "[3]; [7]", "value": "increase in expression"},
      {"measurement": "percentage of CXCR4+CD9− cells", "setting": "[3]; [7]", "value": "decrease in the percentage"},
      {"measurement": "expression of markers associated with definitive endoderm (FOXA2, SOX17, CER1, CXCR4)", "setting": "[4]; 1-100 ng/ml insulin, day 4", "value": "did not significantly affect"},
      {"measurement": "expression of NANOG", "setting": "[4]; 1-10 μg/ml of insulin", "value": "did increase expression"},
      {"measurement": "decrease of the expression of SOX17", "setting": "[5]", "value": "approximately 70%"}
    ]}
  ]
}
